Data set [1] deals with T1, human soluble guanylate cyclase alpha 1 and beta 1 subunits (sGC) (Homo sapiens, UniProt Q02108+Q02153).
T1 construct: expressed in transfected cells; host or cells: Chinese hamster ovary (CHO) cells, stably transfected
T1 sequence (Q02108 1-690): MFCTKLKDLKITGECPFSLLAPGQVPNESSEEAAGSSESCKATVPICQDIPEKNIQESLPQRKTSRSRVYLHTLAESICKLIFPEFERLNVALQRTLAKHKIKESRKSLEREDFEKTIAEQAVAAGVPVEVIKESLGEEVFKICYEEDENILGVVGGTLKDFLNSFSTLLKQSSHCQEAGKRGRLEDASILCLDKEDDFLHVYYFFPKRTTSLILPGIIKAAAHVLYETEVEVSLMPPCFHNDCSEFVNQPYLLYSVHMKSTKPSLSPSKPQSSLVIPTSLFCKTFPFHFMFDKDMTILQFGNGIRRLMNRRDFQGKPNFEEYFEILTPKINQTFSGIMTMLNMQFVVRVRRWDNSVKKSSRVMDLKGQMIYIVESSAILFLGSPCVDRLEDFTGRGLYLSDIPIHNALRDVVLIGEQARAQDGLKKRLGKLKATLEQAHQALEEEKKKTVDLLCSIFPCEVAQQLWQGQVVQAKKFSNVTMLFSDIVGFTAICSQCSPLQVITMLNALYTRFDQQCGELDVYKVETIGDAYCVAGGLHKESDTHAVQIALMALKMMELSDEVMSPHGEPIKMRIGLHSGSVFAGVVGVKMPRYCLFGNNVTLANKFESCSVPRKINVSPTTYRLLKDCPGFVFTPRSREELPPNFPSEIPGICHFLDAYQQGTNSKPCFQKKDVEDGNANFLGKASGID
T1 sequence (Q02153 1-619): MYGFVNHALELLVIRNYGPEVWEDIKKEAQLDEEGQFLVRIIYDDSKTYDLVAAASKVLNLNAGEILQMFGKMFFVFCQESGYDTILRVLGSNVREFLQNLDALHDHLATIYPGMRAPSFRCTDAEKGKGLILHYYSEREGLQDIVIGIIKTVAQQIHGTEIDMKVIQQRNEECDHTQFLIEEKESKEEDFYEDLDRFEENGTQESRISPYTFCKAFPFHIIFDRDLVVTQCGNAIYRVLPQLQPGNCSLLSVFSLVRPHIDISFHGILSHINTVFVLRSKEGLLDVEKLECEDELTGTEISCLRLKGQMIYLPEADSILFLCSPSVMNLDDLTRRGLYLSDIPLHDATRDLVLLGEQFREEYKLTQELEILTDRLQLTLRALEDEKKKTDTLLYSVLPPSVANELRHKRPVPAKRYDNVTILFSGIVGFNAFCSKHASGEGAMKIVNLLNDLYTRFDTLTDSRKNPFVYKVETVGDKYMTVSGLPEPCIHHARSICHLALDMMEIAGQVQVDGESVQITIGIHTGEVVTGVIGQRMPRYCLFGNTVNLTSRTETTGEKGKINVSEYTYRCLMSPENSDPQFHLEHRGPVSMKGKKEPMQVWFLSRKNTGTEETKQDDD
The data set can be described thus: sGC cellular activator assay (cGMP, HTRF). In kind it is cell-based. The following applies: CHO cells stably expressing human sGC alpha 1/beta 1, preincubated with 40 microM ODQ; cGMP readout; assay run with and without 50% human serum, Table 2 does not say which. The procedure, abridged:
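Heme-oxidized conditions: ODQ (40 microM, 1 h) pretreatment of CHO cells stably expressing human α1/β1 sGC, in buffer containing 0.1% BSA and IBMX.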

Data set [2] in a line: Assessment of solubility (McIlvaine buffers, 24 h shake, UPLC-UV). The following applies: kinetic from dmso stock. In kind it is physicochemical. The procedure, abridged: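 Compounds from 10 mM DMSO stocks were shaken for 24 h at room temperature in McIlvaine buffers at pH 2.2, 4.5 and 6.8 (2.5% v/v DMSO final), then filtered. Filtrates were quantified by UPLC-UV at 254 nm against a 50:50 acetonitrile/water reference assumed fully dissolved, as a single determination.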

Our source for the EC50 and solubility values is patent US8906904B2, “Alkoxy pyrazoles as soluble guanylate cyclase activators” (Boehringer Ingelheim International GmbH, priority 2012, dated 2014).

Converted amounts (≈) assume the structure as drawn.

What is called EC50 is the concentration at which the effect is half-maximal. High values mean a less potent agent, low ones a more potent agent. The term solubility denotes the concentration that dissolves in the medium under given conditions.

For the molecule `Cc1cccc(-c2cccc(-n3ncc(C(=O)O)c3OC(C)C)n2)c1OCc1ccc2c(c1C)CCN(CC1(C)COC1)C2` [Compound 46], a half-maximal response in data set [1] (EC50) required 38 nM. Moreover, the solubility at 24 h in data set [2] (pH 2.2, aqueous buffer) was 100 µg/mL (≈ 168 µM); in data set [2] (pH 4.5, aqueous buffer), 82 µg/mL (≈ 137 µM); in data set [2] (pH 6.8, aqueous buffer), 86 µg/mL (≈ 144 µM).
Consider `CCOc1c(C(=O)O)cnn1-c1cccc(-c2cccc(C)c2OCc2ccc3c(c2)CCN(C(C)CF)C3)n1` (stereo not drawn) [Compound 49, 5-ethoxy-1-(6-{2-[2-(2-fluoro-1-methyl-ethyl)-1,2,3,4-tetrahydro-isoquinolin-6-ylmethoxy]-3-methyl-phenyl}-pyridin-2-yl)-1H-pyrazole-4-carboxylic acid], for which, in data set [1], a half-maximal effect (EC50) was put at 54 nM. For the same molecule, the solubility at 24 h in data set [2] (pH 2.2, aqueous buffer) was 92 µg/mL (≈ 169 µM); in data set [2] (pH 4.5, aqueous buffer), 69 µg/mL (≈ 127 µM); in data set [2] (pH 6.8, aqueous buffer), 58 µg/mL (≈ 106 µM).
For `CCOc1c(C(=O)O)cnn1-c1cccc(-c2cccc(Cl)c2OCc2ccc3c(c2)CCNC3)n1` [Compound 50], in that order: 990 nM, 120 µg/mL (≈ 238 µM), 79 µg/mL (≈ 156 µM) and 75 µg/mL (≈ 149 µM).
In turn, `CCOc1c(C(=O)O)cnn1-c1cccc(-c2cccc(Cl)c2OCc2ccc3c(c2)CCN(C2COC2)C3)n1` [Compound 51] showed an EC50 in data set [1] of 72 nM. Besides, the solubility at 24 h in data set [2] (pH 2.2, aqueous buffer) is 110 µg/mL (≈ 196 µM); in data set [2] (pH 4.5, aqueous buffer), 83 µg/mL (≈ 148 µM); in data set [2] (pH 6.8, aqueous buffer), 93 µg/mL (≈ 166 µM).
With `COc1c(C(=O)O)cnn1-c1cccc(-c2cc(F)cc(F)c2OCc2ccc3c(c2)CCN(C2COC2)C3)n1` [Compound 52], the EC50 in data set [1] was 170 nM. Also, the solubility at 24 h worked out at 83 µg/mL (≈ 151 µM) in data set [2] (pH 2.2, aqueous buffer); 58 µg/mL (≈ 106 µM) in data set [2] (pH 4.5, aqueous buffer); 73 µg/mL (≈ 133 µM) in data set [2] (pH 6.8, aqueous buffer).
The matching figures for `COc1c(C(=O)O)cnn1-c1cccc(-c2cc(F)cc(F)c2OCc2ccc3c(c2)CCN(C2CCOCC2)C3)n1` [Compound 53]: 110 nM, 84 µg/mL (≈ 146 µM), 65 µg/mL (≈ 113 µM) and 70 µg/mL (≈ 121 µM).
The molecule `CCOc1c(C(=O)O)cnn1-c1cccc(-c2cccc(Cl)c2OCc2ccc3c(c2)CCN(C2CCOCC2)C3)n1` [Compound 54] returned an EC50 in data set [1] of 110 nM. Moreover, the solubility at 24 h in data set [2] (pH 2.2, aqueous buffer) was 100 µg/mL (≈ 170 µM); in data set [2] (pH 4.5, aqueous buffer), 78 µg/mL (≈ 132 µM); in data set [2] (pH 6.8, aqueous buffer), 75 µg/mL (≈ 127 µM).
The matching figures for `CCOc1c(C(=O)O)cnn1-c1cccc(-c2cccc(Cl)c2OCc2ccc3c(c2)CCN(C2CCOC2)C3)n1` (stereo not drawn) [Compound 55]: 110 nM, 98 µg/mL (≈ 170 µM), 48 µg/mL (≈ 83.5 µM) and 49 µg/mL (≈ 85.2 µM).
Take `CCOc1c(C(=O)O)cnn1-c1cccc(-c2cccc(Cl)c2OCc2ccc3c(c2)CCN(C(C)CO)C3)n1` (stereo not drawn) [Compound 56]: the EC50 in data set [1] was 820 nM. Also, the solubility at 24 h in data set [2] (pH 2.2, aqueous buffer) came to 87 µg/mL (≈ 155 µM); in data set [2] (pH 4.5, aqueous buffer), 66 µg/mL (≈ 117 µM); in data set [2] (pH 6.8, aqueous buffer), 77 µg/mL (≈ 137 µM).
`CCOc1c(C(=O)O)cnn1-c1cccc(-c2cccc(Cl)c2OCc2ccc3c(c2)CCN(C2CCC(F)(F)CC2)C3)n1` [Compound 57] showed a concentration giving a half-maximal response (EC50) in data set [1] of 24 nM. Further, the solubility at 24 h in data set [2] (pH 2.2, aqueous buffer) was 95 µg/mL (≈ 152 µM); in data set [2] (pH 4.5, aqueous buffer) it was 47 µg/mL (≈ 75.4 µM); in data set [2] (pH 6.8, aqueous buffer), 51 µg/mL (≈ 81.8 µM).
In the case of `CCOc1c(C(=O)O)cnn1-c1cccc(-c2cccc(Cl)c2OCc2ccc3c(c2)CCN(CCOC)C3)n1` [Compound 58], the EC50 in data set [1] came out at 82 nM. Besides, the solubility at 24 h in data set [2] (pH 2.2, aqueous buffer) was 111 µg/mL (≈ 197 µM); in data set [2] (pH 4.5, aqueous buffer) it was 85 µg/mL (≈ 151 µM); in data set [2] (pH 6.8, aqueous buffer), 89 µg/mL (≈ 158 µM).
In turn, `COc1c(C(=O)O)cnn1-c1cccc(-c2cccc(C)c2OCc2ccc3c(c2)CCN(C2CCOC(C)(C)C2)C3)n1` (stereo not drawn) [Compound 61] registered an EC50 in data set [1] of 59 nM. Also, the solubility at 24 h in data set [2] (pH 2.2, aqueous buffer) was 130 µg/mL (≈ 223 µM); in data set [2] (pH 4.5, aqueous buffer), 110 µg/mL (≈ 189 µM); in data set [2] (pH 6.8, aqueous buffer), 99 µg/mL (≈ 170 µM).
